Reference: patent publication US20220340629A1, “Myosin Derived Peptides and Related Compounds with Anticoagulant Activities” (THE SCRIPPS RESEARCH INSTITUTE, priority 0001, published 2022)
Where two headings read alike, the source gives them in different places. Non-standard residues stand in square brackets, D forms with d. Residues, ends and D or L forms follow the SMILES beside them. No end group written: not given here. *: point of attachment. Arachidoyl = CCCCCCCCCCCCCCCCCCCC(=O)*; NMeN = CN[C@@H](CC(N)=O)C(=O)O; Nle = CCCC[C@H](N)C(=O)O

Legend:
[1] = Metabolite identification after incubation in mouse plasma; format: in vitro ADME; settings: incubated in mouse plasma, FIG. 8
[2] = molecular target: skeletal muscle myosin-supported prothrombin activation by factors Xa and Va (Homo sapiens, UniProt P00742); assay: Assay 1A: prothrombin activation by factor Xa/factor Va/myosin in purified system; format: biochemical, human factors Xa and Va; rabbit skeletal muscle myosin; settings: purified system
Chain of skeletal muscle myosin-supported prothrombin activation by factors Xa and Va (Homo sapiens, UniProt P00742) (P00742 41-179): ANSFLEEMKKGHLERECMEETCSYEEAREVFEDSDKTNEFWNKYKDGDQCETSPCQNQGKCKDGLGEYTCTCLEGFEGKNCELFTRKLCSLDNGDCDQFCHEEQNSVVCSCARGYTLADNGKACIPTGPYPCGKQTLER
Chain of skeletal muscle myosin-supported prothrombin activation by factors Xa and Va (Homo sapiens, UniProt P00742) (P00742 235-488): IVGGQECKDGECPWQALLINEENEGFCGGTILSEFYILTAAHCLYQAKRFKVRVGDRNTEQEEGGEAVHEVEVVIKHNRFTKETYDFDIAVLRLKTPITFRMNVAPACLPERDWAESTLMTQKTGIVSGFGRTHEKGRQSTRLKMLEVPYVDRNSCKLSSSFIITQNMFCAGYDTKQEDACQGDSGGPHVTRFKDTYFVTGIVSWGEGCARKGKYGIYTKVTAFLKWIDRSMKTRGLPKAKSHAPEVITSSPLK
Chain of skeletal muscle myosin-supported prothrombin activation by factors Xa and Va (Homo sapiens, UniProt P00742) (P12259 29-737 partner): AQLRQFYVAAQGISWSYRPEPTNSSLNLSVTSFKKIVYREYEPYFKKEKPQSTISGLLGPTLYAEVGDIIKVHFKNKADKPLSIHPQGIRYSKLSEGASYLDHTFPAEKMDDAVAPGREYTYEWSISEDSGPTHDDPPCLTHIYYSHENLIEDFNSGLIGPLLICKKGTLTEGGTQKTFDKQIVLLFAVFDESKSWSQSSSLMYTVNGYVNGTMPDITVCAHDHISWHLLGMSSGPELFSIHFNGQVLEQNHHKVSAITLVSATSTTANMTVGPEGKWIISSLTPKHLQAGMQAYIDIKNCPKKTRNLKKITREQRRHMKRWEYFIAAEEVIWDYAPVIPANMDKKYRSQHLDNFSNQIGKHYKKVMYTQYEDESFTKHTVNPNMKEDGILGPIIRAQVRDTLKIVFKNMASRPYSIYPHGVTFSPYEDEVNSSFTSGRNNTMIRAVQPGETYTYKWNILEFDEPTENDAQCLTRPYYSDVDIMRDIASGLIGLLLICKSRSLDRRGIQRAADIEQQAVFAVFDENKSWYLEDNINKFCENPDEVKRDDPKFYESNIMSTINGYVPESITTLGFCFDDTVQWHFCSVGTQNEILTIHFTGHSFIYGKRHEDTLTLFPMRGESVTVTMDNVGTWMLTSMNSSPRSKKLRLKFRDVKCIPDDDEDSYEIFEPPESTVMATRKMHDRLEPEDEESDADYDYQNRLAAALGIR
Chain of skeletal muscle myosin-supported prothrombin activation by factors Xa and Va (Homo sapiens, UniProt P00742) (P12259 1574-2224 partner): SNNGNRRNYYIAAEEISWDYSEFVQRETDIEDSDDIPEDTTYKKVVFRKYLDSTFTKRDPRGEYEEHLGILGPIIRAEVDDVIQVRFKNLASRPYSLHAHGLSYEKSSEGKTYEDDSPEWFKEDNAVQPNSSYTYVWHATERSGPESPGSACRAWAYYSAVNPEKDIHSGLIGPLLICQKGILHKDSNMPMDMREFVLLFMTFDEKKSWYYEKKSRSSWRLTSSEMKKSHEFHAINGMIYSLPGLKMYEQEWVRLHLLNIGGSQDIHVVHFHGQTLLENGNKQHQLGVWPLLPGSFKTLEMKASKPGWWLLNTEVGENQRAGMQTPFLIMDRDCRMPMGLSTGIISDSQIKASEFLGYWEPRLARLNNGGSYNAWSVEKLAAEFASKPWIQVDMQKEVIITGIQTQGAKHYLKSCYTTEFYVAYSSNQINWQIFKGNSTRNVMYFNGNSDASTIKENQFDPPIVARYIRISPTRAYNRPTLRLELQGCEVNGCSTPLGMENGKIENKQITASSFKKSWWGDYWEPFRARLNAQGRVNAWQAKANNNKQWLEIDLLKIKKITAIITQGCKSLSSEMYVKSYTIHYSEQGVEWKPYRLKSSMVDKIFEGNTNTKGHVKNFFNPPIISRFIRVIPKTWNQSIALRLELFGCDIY

[3] = molecular target: phospholipid-supported prothrombin activation by factors Xa and Va (Homo sapiens, UniProt P00742); assay: Assay 1C: phospholipid vesicle (PC/PS 80%/20%)-supported prothrombin activation; format: biochemical
Chain of phospholipid-supported prothrombin activation by factors Xa and Va (P00742 41-179 limits assumed): as the sequence (P00742 41-179) above
Chain of phospholipid-supported prothrombin activation by factors Xa and Va (P00742 235-488 limits assumed): as the sequence (P00742 235-488) above

[4] = test system: thrombin generation in human platelet poor plasma with skeletal muscle myosin; assay: Assay 2A: thrombin generation, recalcification of human platelet poor plasma + myosin; format: biochemical; settings: human platelet poor plasma 30%, myosin 50 nM, CaCl2 10 mmol/L; read-out: 2A (recalcification +myosin)
How it was run: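 Pooled normal human platelet-poor plasma (30%) preincubated 5 min at 37° C with 50 nM skeletal muscle myosin and peptide in DMSO. Coagulation triggered with 10 mmol/L CaCl2 plus fluorogenic Z-Gly-Gly-Arg-AMC; thrombin generation followed 25 min (ex 360/em 460 nm). IC50 = peptide concentration giving 50% inhibition of thrombin generation.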

[5] = test system: thrombin generation in human whole blood; assay: Assay 4: thrombin generation in recalcified human whole blood; format: biochemical
Description: In addition to purified protein system and human plasma, assays using whole blood (Assay 4) were also performed to examine anti-coagulant activities of the peptides and derivative compounds. In these assays, freshly drawn anticoagulated human whole blood (80 μL aliquot) was incubated with peptide in DMSO or DMSO alone (control) for 5 min at 37° C. Then, fluorogenic thrombin substrate solution (Z-Gly-Gly-Arg-AMC) (I-1140) with 10 mmol/L CaCl2 (final) alone was added to the reaction mixture (total 110 μl) in 96 well plate to initiate coagulation. Thrombin generation was followed continuously for 25 min using SPECTRAmax GEMINI XS fluorometer (Molecular Devices, Sunnyvale, Calif.) with excitation and emission wavelengths set at 360 and 460 nm, respectively. The first derivative of fluorescence versus time was used to produce thrombin generation curves with the correction for substrate consumption and inner filter effect. IC50 were determined using a curve fit program in Prism7.0 (GraphPad Software, San Diego, Calif.).

[6] = molecular target: T1, prothrombin activation by factor Xa and factor Va (no myosin) (Homo sapiens, UniProt P00742); assay: Assay 1B: prothrombin activation by factor Xa/factor Va, no myosin; format: biochemical; settings: purified system, no myosin
T1 construct: the same reaction mixture of factor Xa, factor Va and prothrombin
T1 sequence (P00742 41-179 limits assumed): as the sequence (P00742 41-179) above
T1 sequence (P00742 235-488 limits assumed): as the sequence (P00742 235-488) above

[7] = test system: thrombin generation in human plasma; assay: Thrombin generation assay in pooled normal human plasma (Examples 3 and 4); format: biochemical; settings: screened at 25 μM, FIG. 3A
Description: Thrombin generation assay in pooled human plasma: The effect of synthetic peptides on thrombin generation in pooled normal human plasma (George King Bio-medical, Inc., Overland Park, KS) was tested as described (1,11). Briefly, normal human plasma (30 μl) was mixed with CTI, followed by the addition of peptide. Then, tissue factor (TF) (Innovin) (0.5[…] pM final) containing 30 mM Ca^++ in TBSA with fluorogenic thrombin substrate solution (I-1140) (Bachem Americas, Inc., Torrance, Calif.) were added to the plasma to initiate coagulation activation. The first derivative of the time course data for substrate hydrolysis yielded the thrombin generation curve, allowing measurement of thrombin generation during the initiation, propagation and termination phases of thrombin generation and the value for peak thrombin generated.

[8] = test system: skeletal muscle myosin-supported prothrombin activation by factors Xa and Va; assay: Assay 1A: prothrombin activation by factor Xa/factor Va/myosin in purified system; format: biochemical, human factors Xa and Va; rabbit skeletal muscle myosin
Human factor Xa [9] = molecular target: T2, Human factor Xa (human, UniProt P00742 41-179; P00742 235-488, limits assumed); assay: cell-based or functional assay
T2 sequence (P00742 41-179 limits assumed, form in doubt, chain 1 of 2): as the sequence (P00742 41-179) above
T2 sequence (P00742 235-488 limits assumed, form in doubt, chain 2 of 2): as the sequence (P00742 235-488) above

Human factor Xa [10] = molecular target: T2, Human factor Xa; assay: cell-based or functional assay; remark: listed apart in the source
[11] = skeletal muscle myosin, factor Va 5 nM, factor Xa 0.2 nM, prothrombin 0.75 μM, 10 min, read-out: 1A (+myosin)

Q: With CC[C@H](C)[C@H](NC(=O)[C@H](C)N)C(=O)N[C@@H](Cc1ccccc1)C(=O)N[C@@H](CS)C(=O)N[C@H](C(=O)N[C@@H](CCC(N)=O)C(=O)N[C@@H](Cc1ccc(O)cc1)C(=O)N[C@@H](CC(N)=O)C(=O)N[C@H](C(=O)N[C@@H](CCCNC(=N)N)C(=O)N[C@@H](CO)C(=O)N[C@@H](Cc1ccccc1)C(=O)N[C@@H](CCSC)C(=O)N[C@@H](CC(N)=O)C(=O)N[C@H](C(=O)N[C@@H](CCCCN)C(=O)N[C@@H](Cc1c[nH]cn1)C(=O)N[C@@H](Cc1c[nH]c2ccccc12)C(=O)N1CCC[C@H]1C(=O)N[C@@H](Cc1c[nH]c2ccccc12)C(=O)N[C@@H](CCSC)C(=O)N[C@@H](CCCCN)C(N)=O)C(C)C)[C@@H](C)CC)[C@@H](C)CC [HC060] (H-AIFCIQYNIRSFMNVKHWPWMK-NH2) as the molecule, how does the “sites of protease cleavage identified from metabolite identification” value [1] read?
A: six

Q: And the IC50 [2, 11]?
A: 1100 nM

Q: And the “1C (+phospholipid)” value ([3]; phospholipid vesicle 4 μM, PS 20%/PC 80%, result in words)?
A: No activity

Q: Which IC50 [4] does the source give for CCCC[C@H](NC(=O)[C@H](Cc1c[nH]c2ccccc12)NC(=O)[C@@H]1CCCN1C(=O)[C@H](Cc1c[nH]c2ccccc12)NC(=O)[C@H](Cc1c[nH]cn1)NC(=O)[C@H](CCCCN)NC(=O)[C@@H](NC(=O)[C@H](CC(N)=O)NC(=O)[C@H](CCCC)NC(=O)[C@H](Cc1ccccc1)NC(=O)[C@H](CO)NC(=O)[C@H](CCCNC(=N)N)NC(=O)[C@@H](NC(=O)[C@H](CC(N)=O)NC(=O)[C@H](Cc1ccc(O)cc1)NC(=O)[C@H](CCC(N)=O)NC(=O)[C@@H](NC(=O)[C@@H](NC(=O)[C@H](Cc1ccccc1)NC(=O)[C@@H](NC(=O)[C@H](C)N)[C@@H](C)CC)[C@@H](C)O)[C@@H](C)CC)[C@@H](C)CC)C(C)C)C(=O)N[C@@H](CCCCN)C(N)=O [HC179] (H-AIFTIQYNIRSF[Nle]NVKHWPW[Nle]K-NH2; N-terminus assumed) here?
A: 8300 nM

Q: And the “4 (recalcification), result in words” value ([5]; result in words)?
A: No activity

Q: What about the IC50 [2, 11] of the same molecule?
A: 400 nM

Q: Which IC50 [6] does the source give for CC[C@H](C)[C@H](NC(=O)[C@H](C)NC(=O)[C@@H](N)CCC(=O)O)C(=O)N[C@@H](Cc1ccccc1)C(=O)N[C@@H](CS)C(=O)N[C@H](C(=O)N[C@@H](CCC(N)=O)C(=O)N[C@@H](Cc1ccc(O)cc1)C(=O)N[C@@H](CC(N)=O)C(=O)N[C@H](C(=O)N[C@@H](CCCNC(=N)N)C(=O)N[C@@H](CO)C(=O)N[C@@H](Cc1ccccc1)C(=O)N[C@@H](CCSC)C(=O)N[C@@H](CC(N)=O)C(=O)N[C@H](C(=O)N[C@@H](CCCCN)C(=O)N[C@@H](Cc1c[nH]cn1)C(=O)N[C@@H](Cc1c[nH]c2ccccc12)C(=O)N1CCC[C@H]1C(=O)N[C@@H](Cc1c[nH]c2ccccc12)C(=O)N[C@@H](CCSC)C(=O)N[C@@H](CCCCN)C(=O)N[C@@H](CC(C)C)C(=O)N[C@@H](Cc1ccccc1)C(=O)N[C@@H](Cc1ccccc1)C(=O)N[C@@H](CCCCN)C(=O)N[C@H](C(=O)N[C@@H](CCCCN)C(=O)N1CCC[C@H]1C(=O)N[C@@H](CC(C)C)C(=O)N[C@@H](CC(C)C)C(=O)N[C@@H](CCCCN)C(=O)N[C@@H](CO)C(=O)N[C@@H](C)C(=O)N[C@@H](CCC(=O)O)C(=O)N[C@H](C(=O)N[C@@H](CCC(=O)O)C(=O)N[C@@H](CCCCN)C(=O)N[C@@H](CCC(=O)O)C(N)=O)[C@@H](C)O)[C@@H](C)CC)C(C)C)[C@@H](C)CC)[C@@H](C)CC [HC815-854] (H-EAIFCIQYNIRSFMNVKHWPWMKLFFKIKPLLKSAETEKE-NH2) here?
A: 10800 nM

Q: What about the “inhibition of thrombin generation in human plasma” value [7] of the same molecule?
A: significantly inhibited

Q: And the IC50 ([8]; dose-dependency assays, FIG. 2A, myosin 2 nM, read-out: IC50, inhibition of myosin-supported prothrombin activation)?
A: 2300 nM

Q: What about the “inhibition of myosin-supported prothrombin activation at 5 μM” value ([8]; peptide 5 μM, FIG. 1A) of the same molecule?
A: inhibitory, to varying degrees

Q: And the “inhibition of myosin-supported prothrombin activation at 100 μM” value ([8]; peptide 100 μM, FIG. 1A)?
A: inhibited

Q: What about the IC50 ([2]; prothrombin activation with myosin, read-out: 1A (+ myosin) IC50) of the same molecule?
A: 1990 nM

Q: What about the IC50 ([3]; PC/PS vesicles 4 μM, read-out: IC50, phospholipid vesicles containing 20% phosphatidylserine-supported prothrombin activation) of the same molecule?
A: 104000 nM

Q: And the IC50 ([3]; purified system, phospholipid vesicles, read-out: 1C (+phospholipid))?
A: 7500 nM

Q: With CCCCCCCCCCCCCCCCCCCC(=O)NCCCC[C@H](NC(=O)[C@H](CCCNC(=N)N)NC(=O)[C@@H](NC(=O)[C@H](CC(N)=O)NC(=O)[C@H](Cc1ccc(O)cc1)NC(=O)[C@H](CCC(N)=O)NC(=O)[C@@H](NC(=O)[C@H](CO)NC(=O)[C@H](Cc1ccccc1)NC(=O)[C@@H](NC(=O)[C@H](C)N)[C@@H](C)CC)[C@@H](C)CC)[C@@H](C)CC)C(=O)N[C@@H](Cc1ccccc1)C(=O)N[C@@H](CCCC)C(=O)N(C)[C@@H](CC(N)=O)C(=O)N[C@H](C(=O)N[C@@H](CCCCN)C(=O)N[C@@H](Cc1c[nH]cn1)C(=O)N[C@@H](Cc1c[nH]c2ccccc12)C(=O)N1CCC[C@H]1C(=O)N[C@@H](Cc1c[nH]c2ccccc12)C(=O)N[C@@H](CCCC)C(=O)N[C@@H](CCCCN)C(=O)N[C@@H](CCCCN)C(=O)N[C@@H](CCCCN)C(=O)N[C@@H](CCCCN)C(=O)N[C@@H](CCCCN)C(N)=O)C(C)C [SL-1504-074A, AIFSIQYNIRXF(Nle)(N-MeN)VKHWPW(Nle)KKKKK] (H-AIFSIQYNIRK(Arachidoyl)F[Nle][NMeN]VKHWPW[Nle]KKKKK-NH2) as the molecule, how does the IC50 [4] read?
A: 1700 nM

Q: What about the IC50 ([5]; CaCl2 10 mmol/L, read-out: 4 (recalcification)) of the same molecule?
A: 300 to 4000 nM

Q: Which “IC50, inhibition of myosin-supported prothrombin activation by purified factor Xa, factor Va and Ca++ ions” value (Human factor Xa [9]) does the source give for ARCRGFLARVEYQRMVERREAIFCIQYNIRSFMNVKHWPW-NH2 (cysteine pairing not given here, Synthetic 40-mer; also called HC061) [Peptide HC796-835 (human skeletal muscle myosin heavy chain MYH2 residues 796-835)] here?
A: 1200 nM

Q: And the “IC50, Assay 1A (+myosin): prothrombin activation by factor Xa/factor Va/myosin in purified system” value (Human factor Xa [10])?
A: 1300 nM
